Here are results for five compounds from ChEMBL document CHEMBL5465560, “Selectivity Literature for EUbOPEN Chemogenomic Library” (2024).

In test [1] the test system is Tyrosine-protein kinase ABL1 (Homo sapiens), P00519 [E255K]. Particulars: at 10 µM.
The target in test [2] is T1, Mitogen-activated protein kinase kinase kinase 7 (Homo sapiens) (UniProt O43318).
T1 sequence (whole entry): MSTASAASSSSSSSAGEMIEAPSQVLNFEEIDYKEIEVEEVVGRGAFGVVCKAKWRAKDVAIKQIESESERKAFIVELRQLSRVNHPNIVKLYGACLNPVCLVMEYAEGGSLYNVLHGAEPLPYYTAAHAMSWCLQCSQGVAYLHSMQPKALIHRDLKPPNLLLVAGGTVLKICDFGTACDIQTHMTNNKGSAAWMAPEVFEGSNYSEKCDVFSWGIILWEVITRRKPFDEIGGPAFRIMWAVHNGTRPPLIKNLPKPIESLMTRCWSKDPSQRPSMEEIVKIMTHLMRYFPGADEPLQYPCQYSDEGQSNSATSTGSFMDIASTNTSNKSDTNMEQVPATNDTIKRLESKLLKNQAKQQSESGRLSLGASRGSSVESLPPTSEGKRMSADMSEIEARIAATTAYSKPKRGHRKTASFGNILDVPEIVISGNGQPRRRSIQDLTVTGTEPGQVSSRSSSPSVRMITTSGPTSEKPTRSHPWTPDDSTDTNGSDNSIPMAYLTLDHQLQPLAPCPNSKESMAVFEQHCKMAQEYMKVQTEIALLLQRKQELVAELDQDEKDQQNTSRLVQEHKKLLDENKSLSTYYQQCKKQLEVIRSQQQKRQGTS
The experiment in a line: Selectivity interaction (KinomeScan (DiscoverX)) EUB0000092b MAP3K7. Particulars: at 10 µM.

For test [3], the target named is T2, Dual specificity mitogen-activated protein kinase kinase 3 (Homo sapiens) (UniProt P46734).
T2 sequence (whole entry): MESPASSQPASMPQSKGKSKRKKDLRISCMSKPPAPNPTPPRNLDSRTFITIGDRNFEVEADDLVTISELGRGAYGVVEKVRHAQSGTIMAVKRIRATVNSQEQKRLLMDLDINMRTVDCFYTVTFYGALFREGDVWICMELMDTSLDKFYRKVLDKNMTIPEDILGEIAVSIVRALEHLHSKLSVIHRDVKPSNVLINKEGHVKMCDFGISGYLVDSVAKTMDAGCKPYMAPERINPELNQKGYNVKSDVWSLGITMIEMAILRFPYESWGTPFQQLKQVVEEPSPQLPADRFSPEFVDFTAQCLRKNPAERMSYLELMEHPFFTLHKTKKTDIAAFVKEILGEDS
The experiment in a line: Selectivity interaction (KinomeScan (DiscoverX)) EUB0000655a MAP2K3. The following applies: at 10 µM.

The target in test [4] is T3, Mitogen-activated protein kinase 12 (Homo sapiens) (UniProt P53778).
T3 sequence (whole entry): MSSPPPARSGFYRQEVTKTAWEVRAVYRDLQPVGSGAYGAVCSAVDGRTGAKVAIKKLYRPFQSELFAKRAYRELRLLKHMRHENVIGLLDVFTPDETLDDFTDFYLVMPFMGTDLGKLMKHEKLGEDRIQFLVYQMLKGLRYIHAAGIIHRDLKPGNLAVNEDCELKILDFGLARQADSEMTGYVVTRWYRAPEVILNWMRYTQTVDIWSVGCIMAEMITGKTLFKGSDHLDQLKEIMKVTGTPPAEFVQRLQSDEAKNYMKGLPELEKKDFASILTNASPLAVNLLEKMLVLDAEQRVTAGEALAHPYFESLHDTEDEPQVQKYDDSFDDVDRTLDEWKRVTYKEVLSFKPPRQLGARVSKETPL
The experiment in a line: Selectivity interaction (Kinase panel (Invitrogen)) EUB0000639a MAPK12. Particulars: at 200 nM.

In test [5] the target is T4, Serine/threonine-protein kinase Nek9 (Homo sapiens) (UniProt Q8TD19).
T4 sequence (whole entry): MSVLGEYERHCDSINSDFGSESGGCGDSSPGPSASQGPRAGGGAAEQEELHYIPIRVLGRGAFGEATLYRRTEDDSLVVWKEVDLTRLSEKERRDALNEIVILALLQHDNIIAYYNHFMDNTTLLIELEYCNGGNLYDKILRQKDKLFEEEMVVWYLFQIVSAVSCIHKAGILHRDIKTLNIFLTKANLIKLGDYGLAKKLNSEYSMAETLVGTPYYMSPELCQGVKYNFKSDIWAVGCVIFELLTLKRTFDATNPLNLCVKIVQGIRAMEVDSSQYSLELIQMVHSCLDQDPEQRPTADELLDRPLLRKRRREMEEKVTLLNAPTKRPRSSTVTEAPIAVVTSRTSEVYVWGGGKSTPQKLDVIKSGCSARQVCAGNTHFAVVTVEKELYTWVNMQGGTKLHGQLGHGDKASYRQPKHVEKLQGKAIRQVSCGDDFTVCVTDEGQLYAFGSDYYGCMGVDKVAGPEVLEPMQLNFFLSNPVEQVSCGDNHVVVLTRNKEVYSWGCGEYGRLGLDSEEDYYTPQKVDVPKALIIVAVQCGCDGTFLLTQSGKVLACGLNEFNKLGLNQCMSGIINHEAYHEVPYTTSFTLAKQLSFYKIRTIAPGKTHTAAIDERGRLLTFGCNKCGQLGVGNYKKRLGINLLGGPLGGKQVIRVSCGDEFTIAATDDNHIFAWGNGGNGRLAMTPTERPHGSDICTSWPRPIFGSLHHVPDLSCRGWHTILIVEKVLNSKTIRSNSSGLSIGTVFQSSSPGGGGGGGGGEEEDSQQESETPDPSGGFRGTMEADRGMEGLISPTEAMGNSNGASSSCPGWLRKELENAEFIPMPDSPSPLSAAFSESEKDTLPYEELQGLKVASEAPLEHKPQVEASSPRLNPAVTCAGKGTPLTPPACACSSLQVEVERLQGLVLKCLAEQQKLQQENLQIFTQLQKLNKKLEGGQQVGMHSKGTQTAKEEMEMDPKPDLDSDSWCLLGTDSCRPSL
The experiment in a line: Selectivity interaction (ActivX KiNativ screen (kinase selectivity in THP-1 cell lysates)) EUB0000639a NEK9. In kind it is subcellular. The following applies: lysate, at 5 µM.

In test [6] the target is Beta-1 adrenergic receptor (Homo sapiens, UniProt P08588). The experiment in a line: Selectivity interaction (Beta 1 adrenergic receptor assay, human recombinant ) EUB0000877a ADRB1.

One may read the IC50 as the concentration at which inhibition is half-maximal.

Structures are written as SMILES.

Tyrosine-protein kinase ABL1 (Homo sapiens), P00519 [E255K], sequence (P00519 whole entry E255K): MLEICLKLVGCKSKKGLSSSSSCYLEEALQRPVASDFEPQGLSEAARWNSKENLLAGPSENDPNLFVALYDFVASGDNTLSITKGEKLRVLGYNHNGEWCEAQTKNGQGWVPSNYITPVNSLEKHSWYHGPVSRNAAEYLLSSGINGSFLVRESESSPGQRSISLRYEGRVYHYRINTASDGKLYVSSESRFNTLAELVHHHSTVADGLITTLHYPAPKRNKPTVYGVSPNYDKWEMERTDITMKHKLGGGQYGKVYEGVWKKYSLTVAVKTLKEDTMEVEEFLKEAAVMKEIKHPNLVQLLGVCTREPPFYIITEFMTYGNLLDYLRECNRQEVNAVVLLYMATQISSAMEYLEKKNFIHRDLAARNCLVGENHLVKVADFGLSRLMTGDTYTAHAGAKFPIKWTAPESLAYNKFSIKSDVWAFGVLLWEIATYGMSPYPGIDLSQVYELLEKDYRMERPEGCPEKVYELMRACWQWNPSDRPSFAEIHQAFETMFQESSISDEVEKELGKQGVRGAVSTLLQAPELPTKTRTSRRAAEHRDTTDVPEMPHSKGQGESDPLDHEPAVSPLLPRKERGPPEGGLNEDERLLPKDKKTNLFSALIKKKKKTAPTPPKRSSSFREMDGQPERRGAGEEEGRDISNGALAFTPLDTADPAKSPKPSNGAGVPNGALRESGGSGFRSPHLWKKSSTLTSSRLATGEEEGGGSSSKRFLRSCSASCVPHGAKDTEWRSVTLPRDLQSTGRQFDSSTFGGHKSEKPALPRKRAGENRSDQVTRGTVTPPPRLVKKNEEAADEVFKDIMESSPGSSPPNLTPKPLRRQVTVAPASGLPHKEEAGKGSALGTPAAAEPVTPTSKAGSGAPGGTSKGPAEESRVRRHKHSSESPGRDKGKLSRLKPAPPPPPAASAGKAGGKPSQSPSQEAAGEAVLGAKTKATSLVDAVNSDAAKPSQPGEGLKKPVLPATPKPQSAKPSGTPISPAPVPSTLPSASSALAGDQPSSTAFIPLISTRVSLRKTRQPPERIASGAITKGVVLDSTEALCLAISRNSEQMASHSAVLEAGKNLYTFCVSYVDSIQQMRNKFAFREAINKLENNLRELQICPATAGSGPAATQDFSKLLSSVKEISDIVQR
Beta-1 adrenergic receptor, sequence (P08588 whole entry): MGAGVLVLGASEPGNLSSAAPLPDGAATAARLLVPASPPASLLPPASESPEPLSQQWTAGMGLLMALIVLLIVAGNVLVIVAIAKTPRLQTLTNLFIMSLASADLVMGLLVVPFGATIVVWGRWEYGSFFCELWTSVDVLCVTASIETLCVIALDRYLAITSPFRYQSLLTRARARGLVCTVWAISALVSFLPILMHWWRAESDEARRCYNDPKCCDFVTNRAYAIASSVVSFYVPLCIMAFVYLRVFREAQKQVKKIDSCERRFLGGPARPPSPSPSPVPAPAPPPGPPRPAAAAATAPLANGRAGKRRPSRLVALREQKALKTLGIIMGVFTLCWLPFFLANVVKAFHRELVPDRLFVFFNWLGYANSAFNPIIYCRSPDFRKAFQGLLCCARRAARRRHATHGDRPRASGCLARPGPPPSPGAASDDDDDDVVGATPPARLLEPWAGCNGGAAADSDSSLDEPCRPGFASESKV

In the case of `CCN(CC)CCCCNc1ncc2cc(-c3cc(OC)cc(OC)c3)c(NC(=O)NC(C)(C)C)nc2n1`, the % of control in test [1] is 100%.

On to `CCC(=O)N1CCN(c2ccc(-n3c(=O)ccc4cnc5ccc(-c6cnc7ccccc7c6)cc5c43)cc2C(F)(F)F)CC1`, for which the % of control in test [2] stood at 47%.

On to `CN(C)CCOc1ccc(-c2nc(-c3ccncc3)c(-c3ccc4c(c3)CC/C4=N\O)[nH]2)cc1`, for which the % of control in test [3] was found to be 84%.

On to `CC[C@@H]1[C@H](F)C(=O)N[C@@H]1COc1nccc2cc(C(N)=O)c(OC)cc12` [ZIMLOVISERTIB], for which the % of inhibition was 7.12% in test [4] and 8.8% in test [5].

For `CCC(=O)N1CC[C@H](Nc2ncnc3c2CN(c2cnc(OC)c(C(F)(F)F)c2)CC3)C1` [LENIOLISIB], the IC50 in test [6] was above 30 µM.
